These are literature values, as cited in paper PMC4306533, “Distinct Features of Cap Binding by eIF4E1b Proteins” (Journal of Molecular Biology, 2015).

The structures appear in SMILES notation.

The test system of data set [1] is lung, breast cancer and malignant mesothelioma cells. On the set-up: method as in PMID 23289910, PMID 24711125. Conditions: with gemcitabine or pemetrexed; cited from earlier work.
A further data set relates to in vitro translation. More on the design: method as in PMID 10387101. The settings on record: Cai et al.; read-out: IC50 (inhibitory potency); cited from earlier work.
Data set [2] has as its target eIF4E1a. On the set-up: method as in PMID 19351181. The settings on record: Ghosh et al.; cited from earlier work.
The subject of data set [3] is eIF4E1a. On the set-up: method as in PMID 15317978. The settings on record: cited from earlier work.
Data set [4] has as its system rabbit reticulocyte lysate system (RRL). Conditions: cited from earlier work.

With `Nc1nc2c(c(=O)[nH]1)[n+](Cc1ccccc1)cn2[C@@H]1O[C@H](COP(=O)(O)NCCc2c[nH]c3ccccc23)[C@@H](O)[C@H]1O` [4Ei-1], the “effect on malignant phenotypes and chemosensitization” value in data set [1] is “suppresses malignant phenotypes and chemosensitizes cells”.

A word on the IC50: it is the concentration at which inhibition is half-maximal. As a reminder, the Kd is the equilibrium constant for the complex coming apart. Regarding `Nc1nc2c(c(=O)[nH]1)[n+](Cc1ccccc1)cn2[C@@H]1O[C@H](COP(=O)([O-])O)[C@@H](O)[C@H]1O` [bn^7GMP], the IC50 with in vitro translation was 113 µM. At eIF4E1a [2], the Kd was 0.8 µM and the “fold higher binding to eIF4E1a than m^7GMP” value is 10 fold.

For the compound `Nc1nc2c(ncn2[C@@H]2O[C@H](COP(=O)(O)OP(=O)([O-])OP(=O)(O)OC[C@H]3O[C@@H]([n+]4cn(Cc5ccccc5)c5c(=O)[nH]c(N)nc54)[C@H](O)[C@@H]3O)[C@@H](O)[C@H]2O)c(=O)[nH]1` [bn^7GpppG], the “cap-binding affinity to eIF4E1a versus methylated counterpart” value in the data set on eIF4E1a [3] is on record as “no increase in cap-binding affinity to eIF4E1a was observed”. The “inhibitory potency and translational efficiency compared with m^7GpppG” value in data set [4] is “higher inhibitory potency and translational efficiency”.

Consider `Nc1nc2c(ncn2[C@@H]2O[C@H](COP(=O)(O)OP(=O)(O)OP(=O)([O-])OP(=O)(O)OC[C@H]3O[C@@H]([n+]4cn(Cc5ccccc5)c5c(=O)[nH]c(N)nc54)[C@H](O)[C@@H]3O)[C@@H](O)[C@H]2O)c(=O)[nH]1` [bn^7GppppG], for which the “cap-binding affinity to eIF4E1a versus methylated counterpart” value in the data set with eIF4E1a [3] is “no increase in cap-binding affinity to eIF4E1a was observed”.
